Tested on: MV-4-11 cells
Experiment: Gene expression microarray analysis (Affymetrix PrimeView) and GSEA
Assay type: cell-based, human
Design: RFU PODN (11730768_x_at) / Fold change /veh PODN (11730768_x_at) / RFU LINC00158 (11744669_a_at) / Fold change /veh LINC00158 (11744669_a_at) / RFU DUSP10 (11751237_a_at) / Fold change /veh DUSP10 (11751237_a_at) / RFU ID3 (11757404_x_at) / Fold change /veh ID3 (11757404_x_at) / RFU PLEKHG5 (11737974_s_at) / Fold change /veh PLEKHG5 (11737974_s_at) / RFU LRRC4B (11730491_at) / Fold change /veh LRRC4B (11730491_at) / RFU GIMAP4 (11747438_a_at) / Fold change /veh GIMAP4 (11747438_a_at) / RFU KRT8 (11758183_x_at) / Fold change /veh KRT8 (11758183_x_at) / RFU CNN1 (11734310_a_at) / Fold change /veh CNN1 (11734310_a_at) / RFU VPS37D (11726825_at) / Fold change /veh VPS37D (11726825_at) / RFU C10orf10 (11716522_x_at) / Fold change /veh C10orf10 (11716522_x_at) / RFU KIR2DL2 /// KIR2DL4 /// KIR2DL5A /// KIR2DL5B /// KIR2DS1 /// KIR2DS2 /// KIR2DS3 /// KIR2DS4 /// KIR3DL3 /// KIR3DL3 /// KIR3DS1 (11738374_at) / Fold change /veh KIR2DL2 /// KIR2DL4 /// KIR2DL5A /// KIR2DL5B /// KIR2DS1 /// KIR2DS2 /// KIR2DS3 /// KIR2DS4 /// KIR3DL3 /// KIR3DL3 /// KIR3DS1 (11738374_at) / RFU C1QL1 (11718748_at) / Fold change /veh C1QL1 (11718748_at) / RFU TMPRSS4 (11747572_a_at) / Fold change /veh TMPRSS4 (11747572_a_at) / RFU HAMP (11756126_x_at) / Fold change /veh HAMP (11756126_x_at) / RFU RNFT2 (11725882_a_at) / Fold change /veh RNFT2 (11725882_a_at) / RFU NR4A2 (11747474_a_at) / Fold change /veh NR4A2 (11747474_a_at) / RFU ABCC12 (11746883_a_at) / Fold change /veh ABCC12 (11746883_a_at) / RFU TMEM136 (11760407_x_at) / Fold change /veh TMEM136 (11760407_x_at) / RFU CLDN22 /// WWC2 (11732394_at) / Fold change /veh CLDN22 /// WWC2 (11732394_at) / RFU HLA-DPB1 (11760878_x_at) / Fold change /veh HLA-DPB1 (11760878_x_at) / RFU SPINT1 (11716480_a_at) / Fold change /veh SPINT1 (11716480_a_at) / RFU GAP43 (11754022_s_at) / Fold change /veh GAP43 (11754022_s_at) / RFU A4GNT (11735810_at) / Fold change /veh A4GNT (11735810_at) / RFU PRB3 (11715151_x_at) / Fold change /veh PRB3 (11715151_x_at) / RFU TUBB4B (11761932_at) / Fold change /veh TUBB4B (11761932_at) / RFU CAPN14 (11732068_a_at) / Fold change /veh CAPN14 (11732068_a_at) / RFU TMCC2 (11721928_a_at) / Fold change /veh TMCC2 (11721928_a_at) / RFU IRGQ (11745062_a_at) / Fold change /veh IRGQ (11745062_a_at) / RFU FAM174B (11720279_a_at) / Fold change /veh FAM174B (11720279_a_at) / RFU TMPRSS4 (11748680_a_at) / Fold change /veh TMPRSS4 (11748680_a_at) / RFU FAM212B (11763350_a_at) / Fold change /veh FAM212B (11763350_a_at) / RFU PLEKHG5 (11743358_a_at) / Fold change /veh PLEKHG5 (11743358_a_at) / RFU ZSCAN30 (11745921_a_at) / Fold change /veh ZSCAN30 (11745921_a_at) / RFU CMKLR1 (11741424_a_at) / Fold change /veh CMKLR1 (11741424_a_at) / RFU LOC101060620 /// MAPK8IP1 (11723275_at) / Fold change /veh LOC101060620 /// MAPK8IP1 (11723275_at) / RFU SPTSSB (11747773_x_at) / Fold change /veh SPTSSB (11747773_x_at) / RFU PRSS12 (11739890_at) / Fold change /veh PRSS12 (11739890_at) / RFU BIN1 (11741810_x_at) / Fold change /veh BIN1 (11741810_x_at) / RFU WNT11 (11732464_a_at) / Fold change /veh WNT11 (11732464_a_at) / RFU C10orf10 (11716521_a_at) / Fold change /veh C10orf10 (11716521_a_at) / RFU C5orf56 (11738089_at) / Fold change /veh C5orf56 (11738089_at) / RFU CYB561 (11721691_x_at) / Fold change /veh CYB561 (11721691_x_at) / RFU ANKRD19P (11752326_a_at) / Fold change /veh ANKRD19P (11752326_a_at) / RFU OR2T12 /// OR2T33 /// OR2T8 (11738714_s_at) / Fold change /veh OR2T12 /// OR2T33 /// OR2T8 (11738714_s_at) / RFU VCAN (11748164_a_at) / Fold change /veh VCAN (11748164_a_at) / RFU JSRP1 (11732532_at) / Fold change /veh JSRP1 (11732532_at) / RFU KRTAP10-11 (11738290_x_at) / Fold change /veh KRTAP10-11 (11738290_x_at) / RFU MYO3A (11730013_a_at) / Fold change /veh MYO3A (11730013_a_at) / RFU EBF3 (11725865_a_at) / Fold change /veh EBF3 (11725865_a_at) / RFU CAMK2N1 (11719241_x_at) / Fold change /veh CAMK2N1 (11719241_x_at) / RFU C5orf56 (11738088_a_at) / Fold change /veh C5orf56 (11738088_a_at) / RFU OLFML3 (11715873_a_at) / Fold change /veh OLFML3 (11715873_a_at) / RFU LOC100653217 /// NTM (11731650_a_at) / Fold change /veh LOC100653217 /// NTM (11731650_a_at) / RFU MAPK11 (11762145_a_at) / Fold change /veh MAPK11 (11762145_a_at) / RFU FIZ1 (11724087_x_at) / Fold change /veh FIZ1 (11724087_x_at) / RFU OASL (11726364_x_at) / Fold change /veh OASL (11726364_x_at) / RFU SOX15 (11748057_x_at) / Fold change /veh SOX15 (11748057_x_at) / RFU CD79A (11719716_a_at) / Fold change /veh CD79A (11719716_a_at) / RFU HIST1H1D (11736915_at) / Fold change /veh HIST1H1D (11736915_at) / RFU CASKIN2 (11723855_a_at) / Fold change /veh CASKIN2 (11723855_a_at) / RFU LOC730098 (11760151_x_at) / Fold change /veh LOC730098 (11760151_x_at) / RFU OR4N2 (11742367_at) / Fold change /veh OR4N2 (11742367_at) / RFU PRRT2 (11749266_a_at) / Fold change /veh PRRT2 (11749266_a_at) / RFU SNX32 (11753110_a_at) / Fold change /veh SNX32 (11753110_a_at) / RFU CDHR5 (11726645_a_at) / Fold change /veh CDHR5 (11726645_a_at) / RFU RCAN1 (11760418_a_at) / Fold change /veh RCAN1 (11760418_a_at) / RFU FAM167A (11723789_a_at) / Fold change /veh FAM167A (11723789_a_at) / RFU FAM26E (11764081_at) / Fold change /veh FAM26E (11764081_at) / RFU ISYNA1 (11749810_s_at) / Fold change /veh ISYNA1 (11749810_s_at) / RFU ACY1 (11761880_at) / Fold change /veh ACY1 (11761880_at) / RFU 11764098_at / Fold change /veh 11764098_at / RFU SAMD14 (11745864_x_at) / Fold change /veh SAMD14 (11745864_x_at) / RFU NPB (11741838_a_at) / Fold change /veh NPB (11741838_a_at) / RFU TMPRSS6 (11731388_a_at) / Fold change /veh TMPRSS6 (11731388_a_at) / RFU KRTAP10-2 (11738614_at) / Fold change /veh KRTAP10-2 (11738614_at) / RFU ARHGAP8 /// PRR5-ARHGAP8 (11727945_x_at) / Fold change /veh ARHGAP8 /// PRR5-ARHGAP8 (11727945_x_at) / RFU KRTAP5-7 /// NADSYN1 (11734609_at) / Fold change /veh KRTAP5-7 /// NADSYN1 (11734609_at) / RFU RASL12 (11751679_a_at) / Fold change /veh RASL12 (11751679_a_at) / RFU CDKN2B (11736163_a_at) / Fold change /veh CDKN2B (11736163_a_at) / RFU PRF1 (11729649_at) / Fold change /veh PRF1 (11729649_at) / RFU, ZNF638 /// ZNF638-IT1 / Fold change vs veh, ZNF638 /// ZNF638-IT1 / RFU, PANK3 / Fold change vs veh, PANK3 / RFU, SH3YL1 / Fold change vs veh, SH3YL1 / RFU, ZEB2 / Fold change vs veh, ZEB2 / RFU, NRIP1 / Fold change vs veh, NRIP1 / RFU, PTTG1IP / Fold change vs veh, PTTG1IP / RFU, CAPN2 / Fold change vs veh, CAPN2 / RFU, MED14 / Fold change vs veh, MED14 / RFU, SNORA58 / Fold change vs veh, SNORA58 / RFU, C1orf63 / Fold change vs veh, C1orf63 / RFU, LRRFIP1 / Fold change vs veh, LRRFIP1 / RFU, NDUFAF7 / Fold change vs veh, NDUFAF7 / RFU, SLC12A2 / Fold change vs veh, SLC12A2 / RFU, IBTK / Fold change vs veh, IBTK / RFU, ESF1 / Fold change vs veh, ESF1 / Fold change vs veh, TMEM50B / RFU, TAOK1 / Fold change vs veh, TAOK1 / RFU, ACBD3 / Fold change vs veh, ACBD3 / RFU, TMA16 / Fold change vs veh, TMA16 / RFU, RWDD3 / Fold change vs veh, RWDD3 / RFU, BCAT1 / Fold change vs veh, BCAT1 / RFU, EDEM3 / Fold change vs veh, EDEM3 / RFU, TMEM33 / Fold change vs veh, TMEM33 / RFU, WDR75 / Fold change vs veh, WDR75 / RFU, AHCTF1 / Fold change vs veh, AHCTF1 / RFU, TFRC / Fold change vs veh, TFRC / RFU, ZDHHC17 / Fold change vs veh, ZDHHC17 / RFU, NOM1 / Fold change vs veh, NOM1 / RFU, ARL8B / Fold change vs veh, ARL8B / RFU, ZBTB11 / Fold change vs veh, ZBTB11 / RFU, TAMM41 / Fold change vs veh, TAMM41 / RFU, KIAA1704 /// LOC100996395 / Fold change vs veh, KIAA1704 /// LOC100996395 / RFU, ING1 / Fold change vs veh, ING1 / RFU, TRMT61B / Fold change vs veh, TRMT61B / RFU, FUBP3 / Fold change vs veh, FUBP3 / RFU, TP53 / Fold change vs veh, TP53 / RFU, TNKS2 / Fold change vs veh, TNKS2 / RFU, ZFP14 / Fold change vs veh, ZFP14 / RFU, ACTR2 / Fold change vs veh, ACTR2 / RFU, PPP3R1 / Fold change vs veh, PPP3R1 / RFU, PIK3R1 / Fold change vs veh, PIK3R1 / RFU, HNRNPA1 / Fold change vs veh, HNRNPA1 / RFU, RNF170 / Fold change vs veh, RNF170 / RFU, ZNF28 / Fold change vs veh, ZNF28 / RFU, RNGTT / Fold change vs veh, RNGTT / RFU, OGT / Fold change vs veh, OGT / RFU, BRD1 / Fold change vs veh, BRD1 / RFU, MARS / Fold change vs veh, MARS / RFU, ZNF655 / Fold change vs veh, ZNF655 / RFU, FAHD1 / Fold change vs veh, FAHD1 / RFU, BDP1 / Fold change vs veh, BDP1 / RFU, LRRCC1 / Fold change vs veh, LRRCC1 / RFU, ARID1A / Fold change vs veh, ARID1A / RFU, ZNF146 / Fold change vs veh, ZNF146 / RFU, ZNF330 / Fold change vs veh, ZNF330 / RFU, GPN3 / Fold change vs veh, GPN3 / RFU, C9orf123 / Fold change vs veh, C9orf123 / RFU, N4BP2L2 / Fold change vs veh, N4BP2L2 / RFU, ARFIP1 / Fold change vs veh, ARFIP1 / RFU, FAM179B / Fold change vs veh, FAM179B / RFU, BCL10 / Fold change vs veh, BCL10 / RFU, UHRF1BP1L / Fold change vs veh, UHRF1BP1L / RFU, BET1 / Fold change vs veh, BET1 / RFU, CNOT2 / Fold change vs veh, CNOT2 / RFU, ZNF268 / Fold change vs veh, ZNF268 / Fold change vs veh, ZNF507 / RFU, DGCR2 / Fold change vs veh, DGCR2 / RFU, WDSUB1 / Fold change vs veh, WDSUB1 / Fold change vs veh, HSP90B1 /// MIR3652 / RFU, ADSS / Fold change vs veh, ADSS / RFU, GK / Fold change vs veh, GK / RFU, ZNF148 / Fold change vs veh, ZNF148 / RFU, TAF9 / Fold change vs veh, TAF9 / RFU, SLC1A5 / Fold change vs veh, SLC1A5 / RFU, SLMO2 / Fold change vs veh, SLMO2 / RFU, ABCC4 / Fold change vs veh, ABCC4 / RFU, LOC101060439 /// RAP1B / Fold change vs veh, LOC101060439 /// RAP1B / RFU, RFX7 / Fold change vs veh, RFX7 / RFU, GTPBP10 / Fold change vs veh, GTPBP10 / RFU, CNEP1R1 / Fold change vs veh, CNEP1R1 / RFU, BIVM-ERCC5 /// ERCC5 / Fold change vs veh, BIVM-ERCC5 /// ERCC5 / RFU, ILF3 / Fold change vs veh, ILF3 / RFU 11762660_at / Fold change /veh 11762660_at / RFU VCAN (11757783_s_at) / Fold change /veh VCAN (11757783_s_at) / RFU DDX43 (11728927_at) / Fold change /veh DDX43 (11728927_at) / RFU KRT8 (11758188_x_at) / Fold change /veh KRT8 (11758188_x_at) / RFU NKD1 (11759106_at) / Fold change /veh NKD1 (11759106_at) / RFU SRD5A1 (11742802_a_at) / Fold change /veh SRD5A1 (11742802_a_at) / RFU TPSAB1 /// TPSB2 (11721975_s_at) / Fold change /veh TPSAB1 /// TPSB2 (11721975_s_at) / RFU GSTM3 (11746129_a_at) / Fold change /veh GSTM3 (11746129_a_at) / RFU IL23R (11737362_x_at) / Fold change /veh IL23R (11737362_x_at) / RFU TMEM51 (11727254_a_at) / Fold change /veh TMEM51 (11727254_a_at) / RFU PIWIL2 (11732686_x_at) / Fold change /veh PIWIL2 (11732686_x_at) / RFU ORM1 (11744905_x_at) / Fold change /veh ORM1 (11744905_x_at) / RFU CCDC152 (11743942_at) / Fold change /veh CCDC152 (11743942_at) / RFU ECM1 (11717891_a_at) / Fold change /veh ECM1 (11717891_a_at) / RFU IL23R (11748794_a_at) / Fold change /veh IL23R (11748794_a_at) / RFU TNFAIP8L3 (11732012_x_at) / Fold change /veh TNFAIP8L3 (11732012_x_at) / RFU MBOAT4 (11741988_at) / Fold change /veh MBOAT4 (11741988_at) / RFU 11764193_at / Fold change /veh 11764193_at / RFU TMEM53 (11763286_at) / Fold change /veh TMEM53 (11763286_at) / RFU MAGEB2 (11727129_at) / Fold change /veh MAGEB2 (11727129_at) / RFU TMEM200A (11744735_a_at) / Fold change /veh TMEM200A (11744735_a_at) / RFU CCDC152 (11751479_a_at) / Fold change /veh CCDC152 (11751479_a_at) / RFU FAM211A (11726209_a_at) / Fold change /veh FAM211A (11726209_a_at) / RFU RGS16 (11746705_a_at) / Fold change /veh RGS16 (11746705_a_at) / RFU VCAN (11755009_s_at) / Fold change /veh VCAN (11755009_s_at) / RFU RHOB (11743442_s_at) / Fold change /veh RHOB (11743442_s_at) / RFU RGS16 (11720943_a_at) / Fold change /veh RGS16 (11720943_a_at) / RFU RGS16 (11720944_at) / Fold change /veh RGS16 (11720944_at) / RFU, VPS4B / Fold change vs veh, VPS4B / RFU, CREB1 / Fold change vs veh, CREB1 / RFU, DNAJC13 / Fold change vs veh, DNAJC13 / RFU, GNAQ / Fold change vs veh, GNAQ / RFU, CDK5R1 / Fold change vs veh, CDK5R1 / RFU, ZRANB3 / Fold change vs veh, ZRANB3 / RFU, CUL4A / Fold change vs veh, CUL4A / RFU, CCNY / Fold change vs veh, CCNY / RFU, UFL1 / Fold change vs veh, UFL1 / RFU, COG3 / Fold change vs veh, COG3 / RFU, DIAPH2 / Fold change vs veh, DIAPH2 / RFU, SKA2 / Fold change vs veh, SKA2 / RFU, AFF3 / Fold change vs veh, AFF3 / RFU, LMF1 / Fold change vs veh, LMF1 / RFU, IPO11 / Fold change vs veh, IPO11 / RFU, DFFB / Fold change vs veh, DFFB / RFU, FOXP1 / Fold change vs veh, FOXP1 / RFU, CARD8 / Fold change vs veh, CARD8 / RFU, STRN3 / Fold change vs veh, STRN3 / RFU, ADK / Fold change vs veh, ADK / RFU, RASSF2 / Fold change vs veh, RASSF2 / RFU, WIPF1 / Fold change vs veh, WIPF1 / RFU, LARP1B / Fold change vs veh, LARP1B / RFU, RASA1 / Fold change vs veh, RASA1 / RFU, RB1 / Fold change vs veh, RB1 / RFU, PPFIA1 / Fold change vs veh, PPFIA1 / RFU, MAT2A / Fold change vs veh, MAT2A / RFU, CCT5 / Fold change vs veh, CCT5 / RFU, WDR92 / Fold change vs veh, WDR92 / RFU, CUX1 / Fold change vs veh, CUX1 / RFU, TTC7A / Fold change vs veh, TTC7A / RFU, TMEM135 / Fold change vs veh, TMEM135 / RFU, DEPTOR / Fold change vs veh, DEPTOR / RFU, CPM / Fold change vs veh, CPM / RFU, DNAJB6 / Fold change vs veh, DNAJB6 / RFU, CACNA2D3 / Fold change vs veh, CACNA2D3 / RFU, DTX4 / Fold change vs veh, DTX4 / RFU, TFCP2 / Fold change vs veh, TFCP2 / RFU, GMCL1 /// GMCL1P1 / Fold change vs veh, GMCL1 /// GMCL1P1 / RFU, AEBP2 / Fold change vs veh, AEBP2 / RFU, SNHG1 /// SNORD22 /// SNORD25 /// SNORD26 /// SNORD27 /// SNORD28 /// SNORD29 /// SNORD31 / Fold change vs veh, SNHG1 /// SNORD22 /// SNORD25 /// SNORD26 /// SNORD27 /// SNORD28 /// SNORD29 /// SNORD31 / Fold change (Aza/veh), C12orf56 (ProbeSet 11735607_a_at) / Fold change (ACY-1035/veh), C12orf56 (ProbeSet 11735607_a_at) / Fold change (Aza/veh), FGFR1OP (ProbeSet 11751329_s_at) / Fold change (ACY-1035/veh), FGFR1OP (ProbeSet 11751329_s_at) / Fold change (Aza/veh), VPS36 (ProbeSet 11739960_a_at) / Fold change (ACY-1035/veh), VPS36 (ProbeSet 11739960_a_at) / RFU SYPL1 (11715823_x_at) / Fold change /veh SYPL1 (11715823_x_at) / RFU IGFBP7 (11715501_s_at) / Fold change /veh IGFBP7 (11715501_s_at) / RFU REEP3 (11722064_at) / Fold change /veh REEP3 (11722064_at) / RFU IGLL1 (11728026_x_at) / Fold change /veh IGLL1 (11728026_x_at): dose or concentration left out as unconfirmed
Settings: MV-4-11 cells, 48 hours

Nc1ncn([C@@H]2O[C@H](CO)[C@@H](O)[C@H]2O)c(=O)n1 [azacitidine]
RFU ISYNA1 (11749810_s_at): 23.56 RFU
